# In patent publication US9359279B2, “Treatment of cancer, inflammatory disease, and autoimmune disease” (AndroScience Corporation, priority 2010, dated 2016):
# Structures can show the parent of a compound that is named as a salt.
# Experiments:
# STAT1 = assay: Western blot analysis of STAT1 protein in KT-3 cells; assay type: cell-based, human; conditions: KT-3 cells, 1, 5, or 20 μM, 0.5-6 hours
# Protocol: (§1) Western Blot Analysis of MRG, STAT1, STAT3, and STAT5 Proteins in KT-3 Cells
# (§2) Western Blot analysis was performed as described in Kawashima et al., J. Immunol. 2001, 167:3652-3660, with minor modifications. Briefly, KT-3 cells were treated with 1, 5, or 20 μM of compound 6 or vehicle alone in the above described IL-6-containing medium. At various time points after incubation (i.e., 0.5, 1, 3, and 6 hours after the treatment), cells were harvested and lysed using a lysis buffer (1.0% Triton X-100, 50 mM Tris-HCl (pH 7.5), 0.1 mM EDTA, 150 mM NaCl, 200 μM Na3VO4, 50 mM NaF, 1 mM dithiothreitol, 0.4 mM phenylmethylsulfonyl fluoride, 3 μg/ml of aprotinin, 2 μg/ml of pepstatin A, 1 μg/ml of leupeptin) at 2×10^7 cells/ml on ice for 30 min. Cell lysates were harvested by centrifugation at 12,000×g for 15 min. The samples (1×10^5 cell equivalent/lane) were subjected to sodium dodecyl sulfate-polyacrylamide gel electrophoresis and subsequently transferred onto Immobilon filters (Millipore). After blocked with 5% BSA, the filter was probed with anti-pSTAT3, STAT3, STAT5, STAT1, MRG or Actin Abs. The rabbit polyclonal anti-STAT3, anti-STAT5, anti-STAT1, and anti-Actin antibodies (Abs), and mouse monoclonal anti-pSTAT3 Ab (B-7) were obtained from Santa Cruz Biotechnology. Affinity purified anti-MRG Ab was prepared as described previously in Hirose et al., J. Biol. Chem. 276:5821-5828. […]
# STAT3 = assay: Western blot analysis of STAT3 protein in KT-3 cells; assay type: cell-based, human; conditions: KT-3 cells, 1, 5, or 20 μM, 0.5-6 hours
# Protocol: as §1, §2
# STAT5 = assay: Western blot analysis of STAT5 protein in KT-3 cells; assay type: cell-based, human; conditions: KT-3 cells, 1, 5, or 20 μM, 0.5-6 hours
# Protocol: as §1, §2
# [1] = Inhibition of growth of various human tumor cell lines (MTT); assay type: cell-based; conditions: Homo sapiens, range over all tumor cell lines tested, 72 h, read-out: IC50 values, growth of all tumor cells tested
# Protocol: (§3) Inhibition of Growth of Various Human Tumor Cell Lines
# (§4) The inhibitory effects of Compound 6 were determined as described below on the growth of colon cancer cells (HCT116, HT29, SW480, and SW620), colon adenocarcinoma cells (Colo205), prostate adenocarcinoma cells (PC-3 and Dul145), prostate carcinoma cells (CWR22RV and LNCap), non-small cell lung carcinoma cells (NCI-H1299), lung adnocarcinoma cells (A549), large cell lung carcinoma cells (NCI-H460), breast metastatic carcinoma cells (MDA-MB-453), breast ductal carcinoma cells (T-47D), breast adnocarcinoma cells (MCF7), hepatocellular carcinoma cells (Huh-7 and HepG2), pancreatic carcinoma cells (PANC-1), cervix adnocarcinoma cells (Hela), IL-6-dependent Lennert's T-cell lymphoma cells (KT-3), IL-6-dependent multiple myeloma cells (INA-6), multiple myeloma cells (KMM-1 and U266), myeloid leukemia cells (HL-60), and T-cell leukemia cells (Jurkat). […] The viability of the tumor cells was then assessed using the tetrazolium-based calorimetric assay (MTT) as described in Su et al., J Mol Cell Cardiol. […] The resultant formazan crystals were solubilized with MTT lysis buffer (50% DMF, 24 mM HCl, 2% Acetic Acid, 5% SDS) and the absorbance at 595 nm was measured using a Benchmark microplate reader (BIO-RAD, Hercules, Calif.). […]
# [2] = tested on: various human tumor cell lines (HCT116, HT29, SW480, SW620, Colo205, PC-3, Dul145, CWR22RV, LNCap, NCI-H1299, A549, NCI-H460, MDA-MB-453, T-47D, MCF7, Huh-7 …); assay: as above; assay type: cell-based; conditions: 0 to 5 μM, 72 h
# Protocol: as §3, §4
# HCT-116 cells = assay: Human colon cancer (HCT-116) mouse xenograft model; assay type: in vivo; conditions: athymic nude mice, HCT-116 xenograft, 40 mg/kg i.p. daily, days 0-4 and 7-10
# Protocol: Inhibitory Effect on Human Colon Cancer (HCT-116) in a Mouse Xenograft Model
# The in vivo experiments were carried out under an Institutional Animal Care and Use Committee-approved protocol and followed Institutional guidelines for proper and humane use of animals in research. Six-week-old female athymic nude mice were purchased from the Harlan Laboratory. Each of eight mice was injected subcutaneously with 1×10^6 HCT-116 cells mixed with Matrigel (BD Bioscience) at the left flank. After injection, tumors were allowed to grow for 5 days into a palpable size (volume ˜100 mm^3) before treatment. Mice were randomized into two groups (n=4 per group). The control group was injected with a vehicle solution only (i.e., 10% DMSO and 90% corn oil), while the experimental group received a daily injection (i.p.) of compound 6 (at a dose of 40 mg/kg body weight, dissolved in the vehicle solution) from days 0 (the initiation day of injection) to 4 and from days 7 to 10. The sizes of tumors were measured twice a week using a Vernier caliper and calculated using the following formula: length×width×height×0.5236, as described in Rockwell et al., J Natl. Cancer Inst. 1972; 49:735-747.
# MRG (MgcRacGAP) = assay: Western blot analysis of MRG protein in KT-3 cells; assay type: cell-based, human; conditions: KT-3 cells, 1, 5, or 20 μM, 0.5-6 hours
# Protocol: as §1, §2
# [3] = tested on: human Lennert's T cell lymphoma KT-3 cells; assay: Inhibition of IL-6-induced proliferation of KT-3 cells (CellTiter Glo viability); assay type: cell-based; conditions: read-out: IC50 (the concentration at which a compound suppresses cell growth by 50%), hIL-6 2.5 ng/ml, 48 hours
# Protocol: Inhibitory Effects on Proliferation of Human Lernert's T Cell Lymphoma KT-3
# Inhibitory effects of compounds of this invention on the growth of human Lennert's T cell lymphoma KT-3 cells, an IL-6-dependent cell line, were determined as described below. […] To experimental wells, test compounds at various concentrations (in triplicates) were added immediately after the cells were plated. To the control wells, an equal volume of vehicle, DMSO (0.1% v/v), was added. After incubating the cells with the compounds or in vehicle for 48 hours, cell viability was assessed using a CellTiter Glo Luminescent Cell Viability Assay Kit (Promega, Madison, Wis.). The resultant luminescence was quantified using Microplate Luminometer LB96V (EG&G BERTH HOLD) according to the manufacturer's protocol. The cell surviving rate was calculated by dividing the luminescence value of compound-treated cells with that of vehicle-treated cells.
# pSTAT3 = assay: Western blot analysis of STAT3 phosphorylation (pSTAT3) in KT-3 cells; assay type: cell-based, human; conditions: KT-3 cells, 1, 5, or 20 μM, 0.5-6 hours
# Protocol: as §1, §2
melting point [°C],IC50 [3] [µM],Structure (SMILES),also measured
104 to 106,,CCN(CC)CCOc1cccc(/C=C/C(=O)/C=C/c2cccc(O)c2)c1 (as salt: succinic acid salt) [Compound 47],
,≤ 0.05,CCS(=O)(=O)Oc1cccc(/C=C/C(=O)/C=C/c2cccc(OS(=O)(=O)CC)c2)c1 [Compound 6],expression of STAT1 (STAT1): no effect; STAT3 protein level (STAT3): down-regulated; STAT5 protein level (STAT5): down-regulated; IC50 [1]: 0.02 to 5.5 µM; inhibitory effects on the growth of all tumor cells tested [2]: dose-dependent inhibitory effects; human colon cancer growth (tumor size) (HCT-116 cells): inhibited human colon cancer growth; MRG protein level (MRG (MgcRacGAP)): down-regulated; phosphorylation of STAT3 protein (pSTAT3): inhibited phosphorylation
,≤ 0.05,O=C1/C(=C/c2cccc(O)c2)CN(C(=O)C2CC2)C/C1=C\c1cccc(O)c1 [Compound 16],
,≤ 0.05,CCN(CC)CCOc1cccc(/C=C/C(=O)/C=C/c2cccc(O)c2)c1 [Compound 19],
,≤ 0.05,CCS(=O)(=O)Oc1cccc(/C=C/C(=O)/C=C/c2cccc(OS(=O)(=O)CC)c2OS(=O)(=O)CC)c1 [Compound 26],
,≤ 0.05,CCS(=O)(=O)Oc1cccc(/C=C/C(=O)/C=C/c2cc(OS(=O)(=O)CC)cc(OS(=O)(=O)CC)c2)c1 [Compound 27],
,≤ 0.05,CCN(CC)CCOc1cccc(/C=C/C(=O)/C=C/c2cccc(O)c2O)c1 [Compound 35],
,≤ 0.05,CCN(CC)CCOc1cccc(/C=C/C(=O)/C=C/c2cccc(OCCN(CC)CC)c2O)c1 [Compound 36],
159 to 160,,COc1ccc(/C=C/C(=O)/C=C/c2cccc(O)c2)cc1OC [Compound 38],
152 to 153,,COc1ccc(/C=C/C(=O)/C=C/c2cccc(O)c2)cc1 [Compound 39],
138 to 139,,O=C(/C=C/c1cccc(O)c1)/C=C/c1cccc(C(F)(F)F)c1 [Compound 41],
159 to 160,,O=C(/C=C/c1cccc(O)c1)/C=C/c1ccccc1F [Compound 42],
102 to 103,,CCS(=O)(=O)Oc1cccc(/C=C/C(=O)/C=C/c2ccc(OS(=O)(=O)CC)c(OS(=O)(=O)CC)c2)c1 [Compound 43],
,≤ 0.05,CCN(CC)CCOc1cccc(/C=C2\CN(C(=O)C3CC3)C/C(=C\c3cccc(O)c3)C2=O)c1 [Compound 45],
,≤ 0.05,CCN(CC)CCOc1cccc(/C=C2\CN(C(=O)C3CC3)C/C(=C\c3cccc(OCCN(CC)CC)c3)C2=O)c1 [Compound 46],
,≤ 0.05,O=C(/C=C/c1cccc(O)c1)/C=C/c1cccc(OCCCN2CCCCC2)c1 [Compound 56],
,≤ 0.05,O=C(/C=C/c1cccc(O)c1)/C=C/c1cccc(OCCN2CCCCC2)c1 [Compound 57],

Structure (SMILES),melting point [°C],IC50 [3] [µM],also measured
CCP(=O)(CC)Oc1cccc(/C=C/C(=O)/C=C/c2cccc(OP(=O)(CC)CC)c2)c1 [Compound 18],,≤ 0.05,
